Results published in US20240100170A1, “CYCLIC-AMP RESPONSE ELEMENT BINDING PROTEIN (CBP) AND/OR ADENOVIRAL E1A BINDING PROTEIN OF 300 KDA (P300) DEGRADATION COMPOUNDS AND METHODS OF USE” (CULLGEN (SHANGHAI), INC., priority 2020, published 2024).
Read-outs that look alike come from different tables or passages of the source.

Legend:
P300 = P300 (Homo sapiens, UniProt Q09472); experiment: percentage of inhibition (degradation) of p300 at 10 nM, Tables 2-4; format: cell-based; parameters: LNCaP or 22RV1 cells that express CBP/P300 proteins were treated with GNE-781 or the bivalent compounds; endogenous in cells; host or cells: LNCaP or 22RV1 (not given); conditions: read-out: Degradation (10 nM)
Chain of P300 (Q09472 whole entry): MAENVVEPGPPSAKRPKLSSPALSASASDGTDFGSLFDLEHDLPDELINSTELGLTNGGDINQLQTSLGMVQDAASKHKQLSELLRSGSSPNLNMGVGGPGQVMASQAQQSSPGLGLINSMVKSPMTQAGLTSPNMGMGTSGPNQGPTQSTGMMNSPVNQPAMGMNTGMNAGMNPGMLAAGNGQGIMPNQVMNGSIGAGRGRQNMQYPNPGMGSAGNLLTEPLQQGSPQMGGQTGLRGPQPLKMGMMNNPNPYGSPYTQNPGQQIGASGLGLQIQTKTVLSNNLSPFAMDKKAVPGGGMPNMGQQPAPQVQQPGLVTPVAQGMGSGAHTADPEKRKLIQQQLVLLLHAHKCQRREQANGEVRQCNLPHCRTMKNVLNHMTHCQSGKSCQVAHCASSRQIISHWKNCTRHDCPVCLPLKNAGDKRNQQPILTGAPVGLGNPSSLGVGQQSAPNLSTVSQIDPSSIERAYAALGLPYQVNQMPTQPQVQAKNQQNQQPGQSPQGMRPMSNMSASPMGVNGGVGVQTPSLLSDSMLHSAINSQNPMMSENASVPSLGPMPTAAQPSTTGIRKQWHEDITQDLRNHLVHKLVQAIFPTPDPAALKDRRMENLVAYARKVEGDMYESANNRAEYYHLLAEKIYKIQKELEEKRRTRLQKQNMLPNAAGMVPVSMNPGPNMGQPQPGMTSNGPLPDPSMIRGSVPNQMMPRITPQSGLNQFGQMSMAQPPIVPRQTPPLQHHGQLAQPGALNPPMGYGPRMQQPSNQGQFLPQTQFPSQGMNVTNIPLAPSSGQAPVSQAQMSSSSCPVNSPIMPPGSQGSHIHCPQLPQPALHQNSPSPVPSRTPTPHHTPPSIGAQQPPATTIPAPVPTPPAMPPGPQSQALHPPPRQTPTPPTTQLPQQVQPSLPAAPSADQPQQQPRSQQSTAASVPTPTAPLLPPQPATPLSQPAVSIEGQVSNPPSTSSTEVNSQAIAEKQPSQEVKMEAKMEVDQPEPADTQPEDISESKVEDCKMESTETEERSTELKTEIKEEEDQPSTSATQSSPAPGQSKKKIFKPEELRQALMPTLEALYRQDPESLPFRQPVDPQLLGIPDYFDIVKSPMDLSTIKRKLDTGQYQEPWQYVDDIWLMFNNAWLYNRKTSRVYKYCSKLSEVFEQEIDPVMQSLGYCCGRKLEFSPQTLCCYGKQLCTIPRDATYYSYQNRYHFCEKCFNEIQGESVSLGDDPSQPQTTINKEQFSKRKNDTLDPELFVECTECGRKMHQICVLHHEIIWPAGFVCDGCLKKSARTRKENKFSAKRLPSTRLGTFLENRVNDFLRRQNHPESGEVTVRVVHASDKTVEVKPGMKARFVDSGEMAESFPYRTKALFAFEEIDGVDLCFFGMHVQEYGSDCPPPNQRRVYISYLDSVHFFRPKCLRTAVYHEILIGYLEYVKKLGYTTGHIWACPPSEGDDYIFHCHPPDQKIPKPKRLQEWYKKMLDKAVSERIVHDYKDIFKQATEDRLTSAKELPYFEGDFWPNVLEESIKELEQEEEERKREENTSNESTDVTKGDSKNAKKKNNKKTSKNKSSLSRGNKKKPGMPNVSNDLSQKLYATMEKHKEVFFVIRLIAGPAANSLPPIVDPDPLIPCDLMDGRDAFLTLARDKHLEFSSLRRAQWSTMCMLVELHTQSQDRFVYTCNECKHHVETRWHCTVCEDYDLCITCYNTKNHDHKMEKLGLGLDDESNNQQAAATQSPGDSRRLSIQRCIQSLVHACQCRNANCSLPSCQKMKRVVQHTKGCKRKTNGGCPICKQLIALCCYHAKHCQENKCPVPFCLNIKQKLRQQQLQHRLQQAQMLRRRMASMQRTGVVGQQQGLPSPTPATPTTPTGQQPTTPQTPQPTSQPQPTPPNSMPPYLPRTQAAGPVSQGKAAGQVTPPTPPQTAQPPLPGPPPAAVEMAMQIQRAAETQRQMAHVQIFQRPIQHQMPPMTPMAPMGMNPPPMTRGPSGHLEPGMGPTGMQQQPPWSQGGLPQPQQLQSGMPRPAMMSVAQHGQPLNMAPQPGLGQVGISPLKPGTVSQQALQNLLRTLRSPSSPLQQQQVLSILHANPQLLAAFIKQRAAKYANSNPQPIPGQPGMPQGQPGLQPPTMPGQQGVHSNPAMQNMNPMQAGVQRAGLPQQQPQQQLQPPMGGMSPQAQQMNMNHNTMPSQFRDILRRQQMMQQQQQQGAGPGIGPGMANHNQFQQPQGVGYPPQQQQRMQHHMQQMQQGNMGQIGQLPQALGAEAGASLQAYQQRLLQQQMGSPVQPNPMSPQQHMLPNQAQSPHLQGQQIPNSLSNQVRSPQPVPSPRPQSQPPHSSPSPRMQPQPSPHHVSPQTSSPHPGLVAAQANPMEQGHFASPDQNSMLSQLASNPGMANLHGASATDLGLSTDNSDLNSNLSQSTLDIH
Experimental: Cultured cells or tissue chunks were washed with cold PBS once and lysed in cold RIPA buffer supplemented with protease inhibitors and phosphatase inhibitors (Beyotime Biotechnology). The solutions were then incubated at 4° C. for 30 minutes with gentle agitation to fully lyse cells. Cell lysates were centrifuged at 13,000 rpm for 10 minutes at 4° C. and pellets were discarded. Total protein concentrations in the lysates were determined by BCA assays (Beyotime Biotechnology). Cell lysates were mixed with Laemmli loading buffer to 1 X and heated at 99° C. for 5 min. Proteins were resolved on SDS-PAGE and visualized by chemiluminescence. Images were taken by a ChemiDoc MP Imaging system (Bio-Rad). Protein bands were quantitated using the accompanied software provided by Bio-Rad.

[1] = system: LNCaP prostate cancer cell; experiment: LNCaP cell viability (CellTiter-Glo); format: cell-based; conditions: Homo sapiens, 72 h; LNCaP cell viability, 3 days, CellTiter-Glo; Table 4
In short: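 LNCaP cells (5000/well, RPMI 1640 + 10% FBS, 37 °C) treated with compounds in 12-point 3-fold serial dilution for three days. Viability read by CellTiter-Glo luminescence, normalized to untreated cells; IC50 from least-squares nonlinear regression.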

Row | inhibition at 0.01 µM (P300; p300, 10 nM, Table 4) | IC50 [1] | Structure (SMILES) | inhibition at 0.01 µM (P300)
1 | > 80% | 4.9 nM | CC(=O)N1CCc2c(c(N3CCCc4cc(-c5cnn(C)c5)c(C(F)F)cc43)nn2C2CCN(Cc3ccc(COc4cccc5c4C(=O)N(C4CCC(=O)NC4=O)C5)cc3)CC2)C1 (stereo not shown) [P-194, 3-(7-((4-((4-(5-acetyl-3-(7-(difluoromethyl)-6-(1-methyl-1H-pyrazol-4-yl)-3,4-dihydroquinolin-1(2H)-yl)-4,5,6,7-tetrahydro-1H-pyrazolo[4,3-c]pyridin-1-yl)piperidin-1-yl)methyl)benzyl)oxy)-1-oxoisoindolin-2-yl)piperidine-2,6-dione] | 
2 | > 80% | 0.2 nM | CC(=O)N1CCc2c(c(N3CCCc4cc(-c5cnn(C)c5)c(C(F)F)cc43)nn2C2CCN(CCCN3CCC(C#Cc4ccc5c(c4)n(C)c(=O)n5C4CCC(=O)NC4=O)CC3)CC2)C1 (stereo not shown) [P-243, 3-(5-((1-(3-(4-(5-acetyl-3-(7-(difluoromethyl)-6-(1-methyl-1H-pyrazol-4-yl)-3,4-dihydroquinolin-1(2H)-yl)-4,5,6,7-tetrahydro-1H-pyrazolo[4,3-c]pyridin-1-yl)piperidin-1-yl)propyl)piperidin-4-yl)ethynyl)-3-methyl-2-oxo-2,3-dihydro-1H-benzo[d]imidazol-1-yl)piperidine-2,6-dione] | 
3 | < 20% | 263 nM | CC(=O)N1CCc2c(c(N3CCCc4cc(-c5cnn(C)c5)c(C(F)F)cc43)nn2C2CCN(C(=O)CCN3CCN(CCCc4cccc5c4n(C)c(=O)n5C4CCC(=O)NC4=O)CC3)CC2)C1 (stereo not shown) [P-239, 3-(4-(3-(4-(3-(4-(5-Acetyl-3-(7-(difluoromethyl)-6-(1-methyl-1H-pyrazol-4-yl)-3,4-dihydroquinolin-1(2H)-yl)-4,5,6,7-tetrahydro-1H-pyrazolo[4,3-c]pyridin-1-yl)piperidin-1-yl)-3-oxopropyl)piperazin-1-yl)propyl)-3-methyl-2-oxo-2,3-dihydro-1H-benzo[d]imidazol-1-yl)piperidine-2,6-dione] | 
4 | 50 to 80% | 41.4 nM | CC(=O)N1CCc2c(c(N3CCCc4cc(-c5cnn(C)c5)c(C(F)F)cc43)nn2C2CCN(CCCN3CCC(CCc4cccc5c4C(=O)N(C4CCC(=O)NC4=O)C5=O)CC3)CC2)C1 (stereo not shown) [P-190, 4-(2-(1-(3-(4-(5-acetyl-3-(7-(difluoromethyl)-6-(1-methyl-1H-pyrazol-4-yl)-3,4-dihydroquinolin-1(2H)-yl)-4,5,6,7-tetrahydro-1H-pyrazolo[4,3-c]pyridin-1-yl)piperidin-1-yl)propyl)piperidin-4-yl)ethyl)-2-(2,6-dioxopiperidin-3-yl)isoindoline-1,3-dione] | 
5 | > 80% | 0.4 nM | CC(=O)N1CCc2c(c(N3CCCc4cc(-c5cnn(C)c5)c(C(F)F)cc43)nn2C2CCN(C(=O)CCCN3CCC(C#Cc4cccc5c4n(C)c(=O)n5C4CCC(=O)NC4=O)CC3)CC2)C1 (stereo not shown) [P-229, 3-(4-((1-(4-(4-(5-acetyl-3-(7-(difluoromethyl)-6-(1-methyl-1H-pyrazol-4-yl)-3,4-dihydroquinolin-1(2H)-yl)-4,5,6,7-tetrahydro-1H-pyrazolo[4,3-c]pyridin-1-yl)piperidin-1-yl)-4-oxobutyl)piperidin-4-yl)ethynyl)-3-methyl-2-oxo-2,3-dihydro-1H-benzo[d]imidazol-1-yl)piperidine-2,6-dione] | 
6 | > 80% | 2.6 nM | CC(=O)N1CCc2c(c(N3CCCc4cc(-c5cnn(C)c5)c(C(F)F)cc43)nn2C2CCN(C(=O)CCCNc3ccc(C(=O)NC4CCC(=O)NC4=O)c4ncccc34)CC2)C1 (stereo not shown) [P-253, 5-((4-(4-(5-acetyl-3-(7-(difluoromethyl)-6-(1-methyl-1H-pyrazol-4-yl)-3,4-dihydroquinolin-1(2H)-yl)-4,5,6,7-tetrahydro-1H-pyrazolo[4,3-c]pyridin-1-yl)piperidin-1-yl)-4-oxobutyl)amino)-N-(2,6-dioxopiperidin-3-yl)quinoline-8-carboxamide] | 
7 | > 80% | 2.4 nM | CC(=O)N1CCc2c(c(N3CCCc4cc(-c5cnn(C)c5)c(C(F)F)cc43)nn2C2CCN(Cc3ccc(CNc4cccc5c4CN(C4CCC(=O)NC4=O)C5=O)nc3)CC2)C1 (stereo not shown) [P-196, 3-(4-(((5-((4-(5-acetyl-3-(7-(difluoromethyl)-6-(1-methyl-1H-pyrazol-4-yl)-3,4-dihydroquinolin-1(2H)-yl)-4,5,6,7-tetrahydro-1H-pyrazolo[4,3-c]pyridin-1-yl)piperidin-1-yl)methyl)pyridin-2-yl)methyl)amino)-1-oxoisoindolin-2-yl)piperidine-2,6-dione] | 
8 | > 80% | 12.9 nM | CC(=O)N1CCc2c(c(N3CCCc4cc(-c5cnn(C)c5)c(C(F)F)cc43)nn2C2CCN(C(=O)CCN3CCC(CCc4cccc5c4n(C)c(=O)n5C4CCC(=O)NC4=O)CC3)CC2)C1 (stereo not shown) [P-232, 3-(4-(2-(1-(3-(4-(5-Acetyl-3-(7-(difluoromethyl)-6-(1-methyl-1H-pyrazol-4-yl)-3,4-dihydroquinolin-1(2H)-yl)-4,5,6,7-tetrahydro-1H-pyrazolo[4,3-c]pyridin-1-yl)piperidin-1-yl)-3-oxopropyl)piperidin-4-yl)ethyl)-3-methyl-2-oxo-2,3-dihydro-1H-benzo[d]imidazol-1-yl)piperidine-2,6-dione] | 
9 | > 80% | 1.4 nM | CC(=O)N1CCc2c(c(N3CCCc4cc(-c5cnn(C)c5)c(C(F)F)cc43)nn2C2CCN(C(=O)CCCCNc3ccc(C(=O)NC4CCC(=O)NC4=O)c4ncccc34)CC2)C1 (stereo not shown) [P-241, 5-((5-(4-(5-acetyl-3-(7-(difluoromethyl)-6-(1-methyl-1H-pyrazol-4-yl)-3,4-dihydroquinolin-1(2H)-yl)-4,5,6,7-tetrahydro-1H-pyrazolo[4,3-c]pyridin-1-yl)piperidin-1-yl)-5-oxopentyl)amino)-N-(2,6-dioxopiperidin-3-yl)quinoline-8-carboxamide] | 
10 | > 80% | 19.7 nM | CC(=O)N1CCc2c(c(N3CCCc4cc(-c5cnn(C)c5)c(C(F)F)cc43)nn2C2CCN(C(=O)CCN3CCN(Cc4cccc5c4n(C)c(=O)n5C4CCC(=O)NC4=O)CC3)CC2)C1 (stereo not shown) [P-208, 3-(4-((4-(3-(4-(5-Acetyl-3-(7-(difluoromethyl)-6-(1-methyl-1H-pyrazol-4-yl)-3,4-dihydroquinolin-1(2H)-yl)-4,5,6,7-tetrahydro-1H-pyrazolo[4,3-c]pyridin-1-yl)piperidin-1-yl)-3-oxopropyl)piperazin-1-yl)methyl)-3-methyl-2-oxo-2,3-dihydro-1H-benzo[d]imidazol-1-yl)piperidine-2,6-dione] | 
11 | < 20% | 592 nM | CC(=O)N1CCc2c(c(N3CCCc4cc(-c5cnn(C)c5)c(C(F)F)cc43)nn2C2CCN(C(=O)CCCCCCCCCC(=O)Nc3cccc(NC4CCC(=O)NC4=O)c3)CC2)C1 (stereo not shown) [P-265, 11-(4-(5-Acetyl-3-(7-(difluoromethyl)-6-(1-methyl-1H-pyrazol-4-yl)-3,4-dihydroquinolin-1(2H)-yl)-4,5,6,7-tetrahydro-1H-pyrazolo[4,3-c]pyridin-1-yl)piperidin-1-yl)-N-(3-((2,6-dioxopiperidin-3-yl)amino)phenyl)-11-oxoundecanamide] | 
12 | 50 to 80% | 10.2 nM | CC(=O)N1CCc2c(c(N3CCCc4cc(-c5cnn(C)c5)c(C(F)F)cc43)nn2C2CCN(CCC3CCN(c4cccc5c4C(=O)N(C4CCC(=O)NC4=O)C5=O)CC3)CC2)C1 (stereo not shown) [P-192, 4-(4-(2-(4-(5-acetyl-3-(7-(difluoromethyl)-6-(1-methyl-1H-pyrazol-4-yl)-3,4-dihydroquinolin-1(2H)-yl)-4,5,6,7-tetrahydro-1H-pyrazolo[4,3-c]pyridin-1-yl)piperidin-1-yl)ethyl)piperidin-1-yl)-2-(2,6-dioxopiperidin-3-yl)isoindoline-1,3-dione] | 
13 | 20 to 50% | 307 nM | CC(=O)N1CCc2c(c(N3CCCc4cc(-c5cnn(C)c5)c(C(F)F)cc43)nn2C2CCN(C(=O)CN3CCN(CCCc4cccc5c4n(C)c(=O)n5C4CCC(=O)NC4=O)CC3)CC2)C1 (stereo not shown) [P-237, 3-(4-(3-(4-(2-(4-(5-Acetyl-3-(7-(difluoromethyl)-6-(1-methyl-1H-pyrazol-4-yl)-3,4-dihydroquinolin-1(2H)-yl)-4,5,6,7-tetrahydro-1H-pyrazolo[4,3-c]pyridin-1-yl)piperidin-1-yl)-2-oxoethyl)piperazin-1-yl)propyl)-3-methyl-2-oxo-2,3-dihydro-1H-benzo[d]imidazol-1-yl)piperidine-2,6-dione] | 

Row | Structure (SMILES) | inhibition at 0.01 µM (P300; p300, 10 nM, Table 4) | IC50 [1] | inhibition at 0.01 µM (P300)
14 | CC(=O)N1CCc2c(c(N3CCCc4cc(-c5cnn(C)c5)c(C(F)F)cc43)nn2C2CCN(CCN3CCC(CCNc4cccc5c4C(=O)N(C4CCC(=O)NC4=O)C5=O)CC3)CC2)C1 (stereo not shown) [P-188, 4-((2-(1-(2-(4-(5-acetyl-3-(7-(difluoromethyl)-6-(1-methyl-1H-pyrazol-4-yl)-3,4-dihydroquinolin-1(2H)-yl)-4,5,6,7-tetrahydro-1H-pyrazolo[4,3-c]pyridin-1-yl)piperidin-1-yl)ethyl)piperidin-4-yl)ethyl)amino)-2-(2,6-dioxopiperidin-3-yl)isoindoline-1,3-dione] |  | 2.3 nM | > 80%
